From patent US20020127281A1, “Stabilized hyrogen peroxide solutions” (priority 2000, published 2002)

Test: stabilization of peroxy compounds by the present stabilizer system
Format: physicochemical
From the text: Trace amounts of peroxy compounds stabilized with a hydrogen peroxide stabilizer, especially diethylene triamine penta(methylene phosphonic acid) or 1-hydroxyethylidene-1,1-diphosphonic acid may be utilized as a preservative for drugs, eyewashes, or other solutions containing an active ingredient designed to be used in the ocular environment. The preservative according to the present invention may be used in the ocular environment. Furthermore, the preservative according to the present invention may be used in any ophthalmic solution as long as the active ingredient in that solution is compatible with trace amounts of the peroxy compounds. Also, virtually any peroxy compound may be used so long as it is hydrolyzed in water to produce hydrogen peroxide. Examples of such sources of hydrogen peroxide, which provide an effective resultant amount of hydrogen peroxide, include sodium perborate decahydrate, sodium peroxide and urea peroxide. […] Hydrogen peroxide concentrations from about 2 ppm to about 1000 ppm are useful in the present invention. Therefore, peroxy compounds that generate hydrogen peroxide from about 2 ppm to about 1000 ppm are useful in the present invention. More preferably, the concentration of hydrogen peroxide from is about 10 ppm to about 1000 ppm.

Which “stabilization by the present system” value does the source give for `CC(=O)OO` [peracetic acid] here?
Its value is “cannot be stabilized”.
